Measured values published in patent US9469631B2 (Boehringer Ingelheim International GmbH, priority 2012, dated 2016).

target: human GPR119 (Homo sapiens (Human), UniProt Q8TDV5); assay: AlphaScreen cAMP assay in MIN6 cells stably transfected with human GPR119; type: cell-based; conditions: Min-6/hGPR119 cells, 45 min incubation at room temperature
Description: The compounds of formula I according to the invention modulate the activity of the G-protein-coupled receptor GPR119. The effect of the compounds on the activation of GPR119 and on the stimulation of intracellular cAMP concentration is determined using the AlphaScreen cAMP Assay Kit (Cat. No. #6760625R) made by PerkinElmer.
MIN6 cells [Miyazaki J et al. Endocrinology. 1990 July; 127(1):126-32] are stably transfected with an expression vector for human GPR119 cDNA (Acc. No. NP_848566). Min-6/hGPR119 cells are cultured in DMEM, 10% FBS, 50 μM β-mercaptoethanol, 0.3 mg/mL Geniticin, 2 mM GlutaMAX at 37° C. 5% CO2. For the assay, the cells are seeded in Optiplates (white, 384-well, 160W-barcoded, TC, sterile with lid, Cat. No. #6007688 (Perkin Elmer); 10000 cells/well; 50 μl). The plates covered with lids are then incubated for 24 hours at 37° C./5% CO2. After the medium is aspirated from the wells completely, 10 μl of the test compound are added, the compounds are diluted using stimulating buffer (140 mM NaCl, 3.6 mM KCl, 0.5 mM NaH2PO4, 0.5 mM MgSO4, 1.5 mM CaCl2, 10 mM Hepes, 5 mM NaHCO3; pH 7.4. 0.5 mM IBMX and 0.1% BSA, the final DMSO concentration is 1%). After 45 minutes incubation at room temperature (approx. 20° C.), the cAMP concentrations are determined using the AlphaScreen cAMP Assay Kit (Cat. No. #6760625R from PerkinElmer).

Chain of human GPR119 (Q8TDV5 whole entry): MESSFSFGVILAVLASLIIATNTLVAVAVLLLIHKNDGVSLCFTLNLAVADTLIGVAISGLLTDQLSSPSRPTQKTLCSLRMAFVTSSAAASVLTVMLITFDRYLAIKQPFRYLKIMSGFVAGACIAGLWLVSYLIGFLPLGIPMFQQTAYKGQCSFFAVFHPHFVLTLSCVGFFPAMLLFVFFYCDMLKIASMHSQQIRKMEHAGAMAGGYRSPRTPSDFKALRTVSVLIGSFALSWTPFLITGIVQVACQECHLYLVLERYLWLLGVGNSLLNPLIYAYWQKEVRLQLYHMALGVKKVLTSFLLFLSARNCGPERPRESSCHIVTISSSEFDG

SMILES | EC50 [nM]
CC(C)(C)OC(=O)N1CCC(N(C(=O)c2ccc(-c3ccc(NS(C)(=O)=O)cc3)cc2)C2CC2)CC1 [Example 92, 4-[Cyclopropyl-(4′-methanesulfonylamino-biphenyl-4-carbonyl)-amino]-piperidine-1-carboxylic acid tert-butyl ester] | 79
O=C(Oc1ccc(F)cc1)N1CCC(N(C(=O)c2ccc(-c3cnco3)cc2)C2CC2)CC1 [Example 119, 4-[Cyclopropyl-(4-oxazol-5-yl-benzoyl)-amino]-piperidine-1-carboxylic acid 4-fluoro-phenyl ester] | 89
CC(C)(C)OC(=O)N1CCC(N(C(=O)c2ccc(-c3ccc(OC(F)(F)F)cc3)cc2)C2CC2)CC1 [Example 88, 4-[Cyclopropyl-(4′-trifluoromethoxy-biphenyl-4-carbonyl)-amino]-piperidine-1-carboxylic acid tert-butyl ester] | 203
CCOC(=O)N1CCC(N(C(=O)c2ccc(-c3cnco3)cc2)C2CC2)CC1 [Example 117, 4-[Cyclopropyl-(4-oxazol-5-yl-benzoyl)-amino]-piperidine-1-carboxylic acid ethyl ester] | 222
C[C@@H]1CN(C(=O)OC(C)(C)C)CC[C@@H]1N(C(=O)c1ccc(-c2cnco2)cc1)C1CC1 (single isomer, unassigned) [Example 46] | 7
CC(C)(C)OC(=O)N1CC[C@H](N(C(=O)c2ccc(-c3cnco3)cc2)C2CC2)[C@@H](F)C1 (single isomer, unassigned) [Example 38] | 174
CC(C)(C)OC(=O)N1CCC(N(C(=O)c2ccc(-n3cccc3)cc2)C2CC2)CC1 [Example 64, 4-[Cyclopropyl-(4-pyrrol-1-yl-benzoyl)-amino]-piperidine-1-carboxylic acid tert-butyl ester] | 278
CN(C)C(=O)Nc1nnc(-c2ccc(C(=O)N(C3CC3)C3CCN(C(=O)OC(C)(C)C)CC3)cc2)s1 [Example 76, 4-(Cyclopropyl-{4-[5-(3,3-dimethyl-ureido)-[1,3,4]thiadiazol-2-yl]-benzoyl}-amino)-piperidine-1-carboxylic acid tert-butyl ester] | 233
CC(C)(C)OC(=O)N1CCC(N(C(=O)c2ccc(-n3cnc(-c4ccccc4)c3)cc2)C2CC2)CC1 [Example 56, 4-{Cyclopropyl-[4-(4-phenyl-imidazol-1-yl)-benzoyl]-amino}-piperidine-1-carboxylic acid tert-butyl ester] | 104
CC(C)(C)OC(=O)N1CC[C@H](N(C(=O)c2ccc(-c3cnco3)cc2)C2CC2)[C@H](F)C1 (single isomer, unassigned) [Example 40] | 2
COc1ccc(OC(=O)N2CCC(N(C(=O)c3ccc(-c4cnco4)cc3)C3CC3)CC2)cc1 [Example 120, 4-[Cyclopropyl-(4-oxazol-5-yl-benzoyl)-amino]-piperidine-1-carboxylic acid 4-methoxy-phenyl ester] | 71
CC(C)(C)OC(=O)N1CCC(N(C(=O)c2ccc(-n3cnc(-c4ccccc4)c3)c(Cl)c2)C2CC2)CC1 [Example 81, 4-{[3-Chloro-4-(4-phenyl-imidazol-1-yl)-benzoyl]-cyclopropyl-amino}-piperidine-1-carboxylic acid tert-butyl ester] | 148
O=C(OCC1CCOCC1)N1CCC(N(C(=O)c2ccc(-c3cnco3)cc2)C2CC2)CC1 [Example 14, 4-[Cyclopropyl-(4-oxazol-5-yl-benzoyl)-amino]-piperidine-1-carboxylic acid tetrahydro-pyran-4-ylmethyl ester] | 1080
CC(C)(C)OC(=O)N1CCC(N(C(=O)c2ccc(-c3ccc(S(N)(=O)=O)cc3)cc2)C2CC2)CC1 [Example 105, 4-[Cyclopropyl-(4′-sulfamoyl-biphenyl-4-carbonyl)-amino]-piperidine-1-carboxylic acid tert-butyl ester] | 115
CC(C)(C)OC(=O)N1CCC(N(C(=O)c2ccc(-c3ccc(CC#N)cc3)cc2)C2CC2)CC1 [Example 91, 4-[(4′-Cyanomethyl-biphenyl-4-carbonyl)-cyclopropyl-amino]-piperidine-1-carboxylic acid tert-butyl ester] | 86
CC1CN(C(=O)OC(C)(C)C)CCC1N(C(=O)c1ccc(-c2cnco2)cc1)C1CC1 (centres unmarked) [Example 2, 4-[Cyclopropyl-(4-oxazol-5-yl-benzoyl)-amino]-3-methyl-piperidine-1-carboxylic acid tert-butyl ester] | 15
CC(C)(C)OC(=O)N1CCC(N(C(=O)c2ccc(-c3cnco3)cc2F)C2CC2)CC1 [Example 35, 4-[Cyclopropyl-(2-fluoro-4-oxazol-5-yl-benzoyl)-amino]-piperidine-1-carboxylic acid tert-butyl ester] | 45
CC(C)(C)OC(=O)N1CCC(N(C(=O)c2ccc(-n3ccnc3)cc2)C2CC2)CC1 [Example 52, 4-[Cyclopropyl-(4-imidazol-1-yl-benzoyl)-amino]-piperidine-1-carboxylic acid tert-butyl ester] | 832
CC(C)(C)OC(=O)N1CCC(N(C(=O)c2ccc(-c3ccc(C#N)c(F)c3)cc2)C2CC2)CC1 [Example 106, 4-[(4′-Cyano-3′-fluoro-biphenyl-4-carbonyl)-cyclopropyl-amino]-piperidine-1-carboxylic acid tert-butyl ester] | 78

Next, values leading:

EC50 [nM] | SMILES
171 | CNC(=O)c1ccc(-c2ccc(C(=O)N(C3CC3)C3CCN(C(=O)OC(C)(C)C)CC3)cc2)nc1 [Example 30, 4-{Cyclopropyl-[4-(5-methylcarbamoyl-pyridin-2-yl)-benzoyl]-amino}-piperidine-1-carboxylic acid tert-butyl ester]
149 | Cc1ncc(-c2ccc(C(=O)N(C3CC3)C3CCN(C(=O)OC(C)(C)C)CC3)cc2)o1 [Example 43, 4-{Cyclopropyl-[4-(2-methyl-oxazol-5-yl)-benzoyl]-amino}-piperidine-1-carboxylic acid tert-butyl ester]
48 | CC(C)(C)OC(=O)N1CCC(N(C(=O)c2ccc(-c3cncc(C#N)c3)cc2)C2CC2)CC1 [Example 113, 4-{[4-(5-Cyano-pyridin-3-yl)-benzoyl]-cyclopropyl-amino}-piperidine-1-carboxylic acid tert-butyl ester]
469 | Cc1cncnc1-c1ccc(C(=O)N(C2CC2)C2CCN(C(=O)OC(C)(C)C)CC2)cc1 [Example 27, 4-{Cyclopropyl-[4-(5-methyl-pyrimidin-4-yl)-benzoyl]-amino}-piperidine-1-carboxylic acid tert-butyl ester]
81 | Cc1cc(C(=O)N(C2CC2)C2CCN(C(=O)OC(C)(C)C)CC2)ccc1-c1cnco1 [Example 24, 4-[Cyclopropyl-(3-methyl-4-oxazol-5-yl-benzoyl)-amino]-piperidine-1-carboxylic acid tert-butyl ester]
238 | CC(C)(C)OC(=O)N1CCC(N(C(=O)c2ccc(-c3ncon3)cc2)C2CC2)CC1 [Example 25, 4-[Cyclopropyl-(4-[1,2,4]oxadiazol-3-yl-benzoyl)-amino]-piperidine-1-carboxylic acid tert-butyl ester]
24 | CC(C)(C)OC(=O)N1CCC(N(C(=O)c2ccc(-c3ccc(C#N)s3)cc2)C2CC2)CC1 [Example 89, 4-{[4-(5-Cyano-thiophen-2-yl)-benzoyl]-cyclopropyl-amino}-piperidine-1-carboxylic acid tert-butyl ester]
229 | CN(C)c1ccc(-c2ccc(C(=O)N(C3CC3)C3CCN(C(=O)OC(C)(C)C)CC3)cc2)cn1 [Example 114, 4-{Cyclopropyl-[4-(6-dimethylamino-pyridin-3-yl)-benzoyl]-amino}-piperidine-1-carboxylic acid tert-butyl ester]
886 | CC(=O)Nc1nc(-c2ccc(C(=O)N(C3CC3)C3CCN(C(=O)OC(C)(C)C)CC3)cc2)ns1 [Example 74, 4-{[4-(5-Acetylamino-[1,2,4]thiadiazol-3-yl)-benzoyl]-cyclopropyl-amino}-piperidine-1-carboxylic acid tert-butyl ester]
228 | CC(C)(C)OC(=O)N1CCC(N(C(=O)c2ccc(-c3ccoc3)cc2)C2CC2)CC1 [Example 90, 4-[Cyclopropyl-(4-furan-3-yl-benzoyl)-amino]-piperidine-1-carboxylic acid tert-butyl ester]
650 | COc1cc(C(=O)N(C2CC2)C2CCN(C(=O)OC(C)(C)C)CC2)ccc1-c1cnco1 [Example 9, 4-[Cyclopropyl-(3-methoxy-4-oxazol-5-yl-benzoyl)-amino]-piperidine-1-carboxylic acid tert-butyl ester]
316 | CCOc1ccc(-c2ccc(C(=O)N(C3CC3)C3CCN(C(=O)OC(C)(C)C)CC3)cc2)cn1 [Example 109, 4-{Cyclopropyl-[4-(6-ethoxy-pyridin-3-yl)-benzoyl]-amino}-piperidine-1-carboxylic acid tert-butyl ester]
347 | Cc1noc(-c2ccc(C(=O)N(C3CC3)C3CCN(C(=O)OC(C)(C)C)CC3)cc2)n1 [Example 60, 4-{Cyclopropyl-[4-(3-methyl-[1,2,4]oxadiazol-5-yl)-benzoyl]-amino}-piperidine-1-carboxylic acid tert-butyl ester]
